Test results: patent US20220324865A1 (Bayer Aktiengesellschaft, priority 2018, published 2022)
Counter-ions that a name gives are not always drawn.

The compounds below were run against T1, human EP3 receptor (Homo sapiens, UniProt P43115) (assay: Cellular in vitro assay for determining EP3 receptor activity (human EP3 cell line, sulprostone-stimulated calcium luminescence)). Details: CHO cells expressing human EP3 and mitochondrial Clytin; antagonist mode, sulprostone at EC50; read-out: EP3 CHO mtCLY ANTAG IC50.
T1 construct: expressed in transfected cells; host or cells: CHO K1 (Chinese Hamster Ovary), stably co-transfected with Galpha16 and mitochondrial clytin
T1 sequence (P43115 1-390): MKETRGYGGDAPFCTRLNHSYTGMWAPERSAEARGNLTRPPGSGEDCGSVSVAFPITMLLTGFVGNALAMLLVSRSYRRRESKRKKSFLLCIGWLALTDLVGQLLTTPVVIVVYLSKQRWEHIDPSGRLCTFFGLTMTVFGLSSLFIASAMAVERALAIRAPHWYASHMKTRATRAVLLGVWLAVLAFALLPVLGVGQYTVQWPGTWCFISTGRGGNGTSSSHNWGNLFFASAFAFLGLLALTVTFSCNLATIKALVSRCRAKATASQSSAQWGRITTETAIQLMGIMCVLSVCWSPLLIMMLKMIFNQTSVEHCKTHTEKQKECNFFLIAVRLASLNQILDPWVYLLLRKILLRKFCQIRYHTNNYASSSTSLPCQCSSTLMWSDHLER
Type: cell-based
How it was run: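 CHO K1 cells stably expressing human EP3 with Gα16 and mitochondrial Clytin, loaded overnight with coelenterazine. Compounds added 10 min before sulprostone at its EC50; antagonism read immediately as reduced calcium-driven luminescence, quadruplicate points.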

Row | SMILES | IC50 [nM]
1 | Cc1ccc(-c2cn3nc(C(=O)NC4CCN(CC(F)(F)F)C4)c(C4CC4)c3c(=O)[nH]2)cc1F (single isomer, unassigned) [6-390] | 8.5
2 | Cc1ccc(-c2cn3nc(C(=O)NC[C@@]4(C5CC5)NC(=O)NC4=O)c(C4CC4)c3c(=O)[nH]2)cc1C [6-456] | 5.95
3 | COc1ccc2c(c1)CCCC2NC(=O)c1nn2cc(-c3cnc4cccc(C)c4c3)[nH]c(=O)c2c1C(C)C (centres unmarked) [Example 4-64, 3-Isopropyl-N-(6-methoxy-1,2,3,4-tetrahydronaphthalen-1-yl)-6-(5-methylquinolin-3-yl)-4-oxo-4,5-dihydropyrazolo[1,5-a]pyrazine-2-carboxamide] | 2.55
4 | Cc1c(C(=O)NC2Cc3ccccc3C2)nn2c(C)c(-c3ccc4ccccc4c3)[nH]c(=O)c12 [Example 3-13, N-(2,3-Dihydro-1H-inden-2-yl)-3,7-dimethyl-6-(naphthalen-2-yl)-4-oxo-4,5-dihydropyrazolo[1,5-a]pyrazine-2-carboxamide] | 7.15
5 | Cc1ccc(-c2cn3nc(C(=O)N[C@@H](CCO)c4ccc(F)cc4)c(C#N)c3c(=O)[nH]2)cc1C [Example 1-75, 3-Cyano-6-(3,4-dimethylphenyl)-N-[(1S)-1-(4-fluorophenyl)-3-hydroxpropyl]-4-oxo-4,5-dihydropyrazolo[1,5-a]pyrazine-2-carboxamide] | 8.75
6 | CC(C)C(NC(=O)c1cc2c(=O)[nH]c(-c3ccc4ccccc4c3)cn2n1)c1ccc(F)cc1 (centres unmarked) [Example 2-48, N-[1-(4-Fluorophenyl)-2-methylpropyl]-6-(2-naphthyl)-4-oxo-4,5-dihydropyrazolo[1,5-a]pyrazine-2-carboxamide] | 3.6
7 | Cc1c(C(=O)N[C@H]2c3ccccc3C[C@H]2O)nn2c(C)c(-c3ccc4ccccc4c3)[nH]c(=O)c12 [Example 3-67, N-[(7S,2R)-2-Hydroxy-2,3-dihydro-1H-inden-1-yl]-3,7-dimethyl-6-(naphthalen-2-yl)-4-oxo-4,5-dihydropyrazolo[1,5-a]pyrazine-2-carboxamide] | 2.05
8 | C[C@@H](NC(=O)c1cc2c(=O)[nH]c(-c3ccc4ccccc4c3)cn2n1)c1ccc(F)cc1 [6-78] | 2.97
9 | Cc1c(C(=O)NC(c2ccc(F)cc2)C(C)C)nn2c(C)c(-c3ccc4ccccc4c3)[nH]c(=O)c12 (centres unmarked) [Example 3-41, N-[1-(4-Fluorophenyl)-2-methylpropyl]-3,7-dimethyl-6-(2-naphthyl)-4-oxo-5H-pyrazolo[1,5-a]pyrazine-2-carboxamide] | 3.95
10 | Cc1ccc(-c2cn3nc(C(=O)N[C@H](CCO)c4ccc(F)cc4)c(C(F)(F)F)c3c(=O)[nH]2)cc1C [Example 1-94, 6-(3,4-Dimethylphenyl)-N-[(1R)-1-(4-fluorophenyl)-3-hydroxpropyl]-4-oxo-3-(trifluoromethyl)-4,5-dihydropyrazolo[1,5-a]pyrazine-2-carboxamide] | 0.765
11 | Cc1cc(-c2cn3nc(C(=O)N[C@H](CN4CCC(F)(F)C4)c4ccc(F)cc4)c(C4CC4)c3c(=O)[nH]2)ccc1Cl [6-339] | 7.15
12 | O=C(N[C@@H](c1ccc(F)cc1)C(F)(F)CO)c1nn2cc(-c3cc(F)c(Cl)cc3F)[nH]c(=O)c2c1C1CC1 [6-585] | 3
13 | Cc1ccc(-c2cn3nc(C(=O)NC(C)C4CCC4)c(C(F)(F)F)c3c(=O)[nH]2)cc1Cl (single isomer, unassigned) [6-194] | 2.55
14 | Cc1ccc(-c2cn3nc(C(=O)N[C@H](C)c4ccc(F)cc4)cc3c(=O)[nH]2)cc1Cl [6-81] | 2.8
15 | Cc1ccc(-c2cn3nc(C(=O)NCC(N)C(F)(F)F)c(C4CC4)c3c(=O)[nH]2)cc1F (single isomer, unassigned) [6-397] | 3.45
16 | CCn1ccc(C(C)NC(=O)c2nn3cc(-c4cnc5cccc(C)c5c4)[nH]c(=O)c3c2C(C)C)n1 (centres unmarked) [Example 4-13, N-[1-(1-Ethylpyrazol-3-yl)ethyl]-3-isopropyl-6-(5-methyl-3-quinolyl)-4-oxo-5H-pyrazolo[1,5-a]pyrazine-2-carboxamide] | 1.45
17 | CC(C)(O)[C@@H](NC(=O)c1nn2cc(-c3ccc(Cl)c(Cl)c3)[nH]c(=O)c2c1C1CC(F)(F)C1)c1ccc(F)cc1 [6-552] | 2.55
18 | Cc1ccc(-c2cn3nc(C(=O)N[C@@H](c4ccc(F)cc4)C(C)(C)O)c(C4CCC4)c3c(=O)[nH]2)cc1C [6-577] | 2.7
19 | Cc1cccc2ncc(-c3cn4nc(C(=O)N[C@H](CCO)c5ccccc5)c(C(C)C)c4c(=O)[nH]3)cc12 [Example 1-88, N-[(1R)-3-Hydroxy-1-phenylpropyl]-6-(5-methylquinolin-3-yl)-4-oxo-3-(propan-2-yl)-4,5-dihydropyrazolo[1,5-a]pyrazine-2-carboxamide] | 1.35

Row | SMILES | IC50 [nM]
20 | COC[C@@H](NC(=O)c1nn2cc(-c3ccc4ccccc4c3)[nH]c(=O)c2c1C#N)c1ccccc1 [Example 1-60, 3-Cyano-N-[(1S)-2-methoxy-1-phenylethyl]-6-(naphthalen-2-yl)-4-oxo-4,5-dihydropyrazolo[1,5-a]-pyrazine-2-carboxamide] | 2.7
21 | COC[C@@H](NC(=O)c1nn2cc(-c3ccc4ccccc4c3)[nH]c(=O)c2c1C(F)(F)F)c1ccccc1 [6-495] | 0.61
22 | O=C(N[C@@H](c1ccc(F)cc1)C(F)(F)CO)c1nn2cc(-c3cc(Cl)c(Cl)cc3F)[nH]c(=O)c2c1C1CC1 [6-582] | 2.65
23 | Cc1ccc(-c2cn3nc(C(=O)N[C@@H](c4ccc(F)cc4)C(C)(C)O)c(C(F)(F)C(F)(F)F)c3c(=O)[nH]2)cc1F [6-492] | 1.8
24 | CCn1cc(CNC(=O)c2nn3c(C)c(-c4ccc5ccccc5c4)[nH]c(=O)c3c2C)c(C)n1 [Example 3-14, N-[(1-Ethyl-3-methyl-1H-pyrazol-4-yl)methyl]-3,7-dimethyl-6-(naphthalen-2-yl)-4-oxo-4,5-dihydropyrazolo[1,5-a]pyrazine-2-carboxamide] | 1.25
25 | COc1ccc2c(c1)C(NC(=O)c1nn3cc(-c4cnc5cccc(C)c5c4)[nH]c(=O)c3c1C(C)C)CC(C)(C)O2 (centres unmarked) [Example 4-74, 3-Isopropyl-N-(6-methoxy-2,2-dimethyl-3,4-dihydro-2H-chromen-4-yl)-6-(5-methylquinolin-3-yl)-4-oxo-4,5-dihydropyrazolo[1,5-a]pyrazine-2-carboxamide] | 6.05
26 | Cc1ccc(-c2cn3nc(C(=O)NCC(C)(N)C(F)(F)F)c(C(F)(F)F)c3c(=O)[nH]2)cc1Cl (racemic) [6-169] | 4.05
27 | CCC1(NC(=O)c2cc3c(=O)[nH]c(-c4ccc5ccccc5c4)cn3n2)CN(C(=O)OC(C)(C)C)C1 [Example 1-5, tert.-Butyl 3-ethyl-3-({[6-(naphthalen-2-yl)-4-oxo-4,5-dihydropyrazolo[1,5-a]pyrazin-2-yl]carbonyl}-amino)azetidine-1-carboxylate] | 2.7
28 | O=C(N[C@H](CCO)c1ccc(F)cc1)c1nn2cc(-c3ccc(Cl)c(C(F)F)c3)[nH]c(=O)c2c1C1CC1 [6-668] | 1.09
29 | Cc1ccc(-c2cn3nc(C(=O)N[C@@H](c4ccc(F)cc4)C(C)(C)O)c(C4CC4(F)F)c3c(=O)[nH]2)cc1Cl (some centres unmarked) [6-563] | 2.9
30 | Cc1ccc(-c2cn3nc(C(=O)N[C@H](C)c4ccc(F)cc4)c(C4CC4)c3c(=O)[nH]2)cc1C [Example 1-84, 3-Cyclopropyl-6-(3,4-dimethylphenyl)-N-[(1R)-1-(4-fluorophenyl)ethyl]-4-oxo-4,5-dihydropyrazolo[1,5-a]pyrazine-2-carboxamide] | 1.2
31 | Cc1cc(-c2cn3nc(C(=O)N[C@@H](C)C(C)C)c(C(F)(F)F)c3c(=O)[nH]2)ccc1Cl [6-215] | 2.7
32 | Cc1c(C(=O)NCc2ccncc2)nn2c(C)c(-c3ccc4ccccc4c3)[nH]c(=O)c12 [Example 3-64, 3,7-Dimethyl-6-(naphthalen-2-yl)-4-oxo-N-[(pyridin-4-yl)methyl]-4,5-dihydropyrazolo[1,5-a]pyrazine-2-carboxamide] | 4.4
33 | Cc1cc(CNC(=O)c2nn3cc(-c4cnc5cccc(C)c5c4)[nH]c(=O)c3c2C(C)C)on1 [Example 4-41, N-[(3-Methyl-1,2-oxazol-5-yl)methyl]-6-(5-methylquinolin-3-yl)-4-oxo-3-(propan-2-yl)-4,5-dihydropyrazolo[1,5-a]pyrazine-2-carboxamide] | 0.95
34 | Cc1ccc(-c2cn3nc(C(=O)N[C@H](C)C(C)(C)C)c(C(F)(F)F)c3c(=O)[nH]2)cc1Cl [6-192] | 3.03
35 | Cc1ccc(-c2cn3nc(C(=O)NC(CCn4cncn4)c4ccccc4)cc3c(=O)[nH]2)cc1C (racemic) [Example 1-12, rac-6-(3,4-Dimethylphenyl)-4-oxo-N-[1-phenyl-3-(1,2,4-triazol-1-yl)propyl]-5H-pyrazolo[1,5-a]-pyrazine-2-carboxamide] | 1.67
36 | O=C(N[C@H](CN1CCOCC1)c1ccc(F)cc1)c1cc2c(=O)[nH]c(-c3ccc4ccccc4c3)cn2n1 [6-67] | 1.58
37 | COc1ccc(C2(NC(=O)c3cc4c(=O)[nH]c(-c5ccc6ccccc6c5)cn4n3)CN(C)C2)cc1 [Example 1-59, N-[3-(4-Methoxyphenyl)-1-methylazetidin-3-yl]-6-(naphthalen-2-yl)-4-oxo-4,5-dihydropyrazolo-[1,5-a]pyrazine-2-carboxamide formic acid salt] | 5.9
38 | O=C(N[C@H](CCO)c1ccc(F)cc1)c1cc2c(=O)[nH]c(-c3ccc4ccccc4c3)cn2n1 [Example 1-52, N-[(1R)-1-(4-Fluorophenyl)-3-hydroxpropyl]-6-(naphthalen-2-yl)-4-oxo-4,5-dihydropyrazolo-[1,5-a]pyrazine-2-carboxamide] | 6.95
